# Reference: ChEMBL document CHEMBL6087414, “Discovery of 4-(4-(3-(1-(2-(piperidin-1-yl)ethyl)-1H-benzo[d]imidazole-2-yl)isoxazol-5-yl)phenyl)morpholine as a novel c-Myc inhibitor against lung cancer in vitro and in vivo” (Eur J Med Chem, 2025)
# What was measured:
# A549 = assay: Cytotoxicity against human A549 cells assessed as inhibition of cell viability incubated for 48 hrs by CCK8 assay; format: functional, cell-based; conditions: A549, 48 h
# NCI-H1299 = assay: Cytotoxicity against human NCI-H1299 cells assessed as inhibition of cell viability incubated for 48 hrs by CCK8 assay; format: functional, cell-based; conditions: NCI-H1299, 48 h
SMILES,IC50 (A549) [µM],IC50 (NCI-H1299) [µM]
c1ccc2c(c1)nc(-c1cc(-c3ccc(N4CCOCC4)cc3)on1)n2CCN1CCCCCC1,9.94,27.6
c1ccc2c(c1)nc(-c1cc(-c3ccc(N4CCCC4)cc3)on1)n2CCN1CCOCC1,19.9,36
c1ccc2c(c1)nc(-c1cc(-c3ccc(N4CCCCC4)cc3)on1)n2CCN1CCCC1,7.68,19
CCN(CC)CCCn1c(-c2cc(-c3ccc(N4CCCCC4)cc3)on2)nc2ccccc21,7.41,18
CCN(CC)CCCn1c(-c2cc(-c3ccc(N(C)C)cc3)on2)nc2ccccc21,8.78,19.7
c1ccc2c(c1)nc(-c1cc(-c3ccc(N4CCCC4)cc3)on1)n2CCN1CCCC1,20.8,38
CN(C)c1ccc(-c2cc(-c3nc4ccccc4n3CCN3CCOCC3)no2)cc1,12.7,17.7
c1ccc2c(c1)nc(-c1cc(-c3ccc(N4CCCCC4)cc3)on1)n2CCN1CCCCCC1,9.38,16.7
c1ccc2c(c1)nc(-c1cc(-c3ccc(N4CCCCCC4)cc3)on1)n2CCN1CCCCCC1,14.8,26.4
CN(C)CCn1c(-c2cc(-c3ccc(N4CCOCC4)cc3)on2)nc2ccccc21,8.92,18.9
Cc1ccc(C(=O)n2c(-c3cc(-c4ccc(F)cc4)on3)nc3ccccc32)cc1,> 40,30.1
O=C(c1ccccc1)n1c(-c2cc(-c3ccc(N4CCOCC4)cc3)on2)nc2ccccc21,20.9,19.5
CCN(CC)CCCn1c(-c2cc(-c3ccc(N4CCCCCC4)cc3)on2)nc2ccccc21,12.2,14.3
CN(C)CCCn1c(-c2cc(-c3ccc(N(C)C)cc3)on2)nc2ccccc21,20.6,17.9
c1ccc2c(c1)nc(-c1cc(-c3ccc(N4CCCCCC4)cc3)on1)n2CCCN1CCOCC1,20.6,22.3
c1ccc2c(c1)nc(-c1cc(-c3ccc(N4CCCCCC4)cc3)on1)n2CCN1CCCC1,10.5,24.6
c1ccc2c(c1)nc(-c1cc(-c3ccc(N4CCCC4)cc3)on1)n2CCCN1CCOCC1,29.5,36.2
CN(C)CCCn1c(-c2cc(-c3ccc(N4CCCCCC4)cc3)on2)nc2ccccc21,8.19,12.9
c1ccc2c(c1)nc(-c1cc(-c3ccc(N4CCCC4)cc3)on1)n2CCN1CCCCCC1,21.2,36.3
CN(C)CCCn1c(-c2cc(-c3ccc(N4CCCCC4)cc3)on2)nc2ccccc21,6.04,15.4
CN(C)c1ccc(-c2cc(-c3nc4ccccc4n3CCN3CCCC3)no2)cc1,10.7,14.2
c1ccc(Cn2c(-c3cc(-c4ccc(N5CCOCC5)cc4)on3)nc3ccccc32)cc1,> 40,> 40
